Results from patent US20080090805A1, “CB-1 MODULATING COMPOUNDS AND THEIR USE” (ACADIA PHARMACEUTICALS INC., priority 2005, published 2008).

Each molecule was assayed against CB1 (mutant) (Homo sapiens, UniProt P21554) (assay: R-SAT functional receptor assay, CB1 (mutant, truncated after amino acid 417)). Conditions: Appendix A; R-SAT CB1; receptor form (mutant or wild-type) not stated.
Assay type: cell-based

Sequence of CB1 (mutant) (P21554 1-417, change not shown): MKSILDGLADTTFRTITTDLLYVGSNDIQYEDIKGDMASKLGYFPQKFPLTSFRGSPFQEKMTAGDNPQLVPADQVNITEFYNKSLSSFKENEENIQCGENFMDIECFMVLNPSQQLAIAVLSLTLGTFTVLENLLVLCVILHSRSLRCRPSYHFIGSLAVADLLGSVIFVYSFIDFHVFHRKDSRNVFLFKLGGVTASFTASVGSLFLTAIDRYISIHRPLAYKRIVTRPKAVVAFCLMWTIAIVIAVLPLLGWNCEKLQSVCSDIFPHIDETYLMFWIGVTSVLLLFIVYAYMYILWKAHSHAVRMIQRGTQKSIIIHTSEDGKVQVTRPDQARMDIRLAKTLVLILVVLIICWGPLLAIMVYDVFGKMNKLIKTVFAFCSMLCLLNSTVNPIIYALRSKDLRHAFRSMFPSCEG

pIC50	SMILES
7.2	CC(NC(=O)c1ccc2c(c1)N=C(C1CCCCC1)c1ccccc1S2)c1ccccc1 (centres unmarked) [drawing 674]
1.0	CCONC(=O)c1ccc2c(c1)N=C(c1ncccc1C)c1ccccc1S2

Same assay, conditions: Appendix A; R-SAT CB1; receptor form (mutant or wild-type) not stated; read-out: pIC50 (converted)

SMILES	IC50
CCN(CCNC(=O)c1ccc2c(c1)N=C(c1ccccc1)c1ccccc1S2)c1ccccc1 [drawing 777]	10 nM
CCCC1=Nc2cc(C(=O)NC(C)CCN(C)C(=O)OCC)ccc2Sc2ccc(C)cc21 (centres unmarked)	1000 nM
CC(C)CNC(=O)c1ccc2c(c1)N=C(c1ccc(Cl)cc1)c1ccc(F)cc1S2 [drawing 949]	20 nM
CCN(CCNC(=O)c1ccc2c(c1)N=C(c1ccc(F)cc1)c1ccccc1S2)c1ccccc1 [drawing 773]	10 nM
CCCC1=Nc2cc(C(=O)NCC3C=CC4=C(C3)OCO4)ccc2Sc2ccccc21 (centres unmarked)	398 nM
O=C(c1ccc2c(c1)N=C(N1CCCCC1)c1ccccc1S2)N1CCCCC1	200 nM
O=C(NCc1ccc(F)cc1)c1ccc2c(c1)N=C(c1ccccc1F)c1ccccc1S2 [drawing 925]	15.8 nM
Cc1cnc(-c2ccc3c(c2)N=C(c2ccc(Cl)cc2)c2ccccc2S3)[nH]1 [drawing 872]	200 nM
CC(CNC(=O)c1ccc2c(c1)N=C(c1ccc(Cl)cc1)c1cc(F)ccc1S2)c1ccccc1 (centres unmarked) [drawing 1173]	39.8 nM
CCCC1=Nc2cc(C(=O)NCCCN3CCN(c4cc(C)ccc4C)CC3)ccc2Sc2ccccc21	316 nM
Cc1ccc(N2CCN(C(=O)c3ccc4c(c3)N=C(C3CCCCC3)c3ccccc3S4)CC2)c(C)c1 [drawing 896]	200 nM
O=C(NCc1ccccc1Br)c1ccc2c(c1)N=C(N1CCCCC1)c1ccccc1S2 [drawing 890]	200 nM
CCCC1=Nc2cc(C(=O)NCCCN3CCN(C)CC3)ccc2Sc2ccccc21	2510 nM
O=C(NN1CCCCCC1)c1ccc2c(c1)N=C(c1ccc(Cl)cc1Cl)c1ccccc1S2 [drawing 876]	200 nM
CCCCC1=Nc2cc(C(=O)NC3CCN(C(=O)OCC)CC3)ccc2Sc2ccccc21	501 nM
O=C(NCc1cccc(Cl)c1)c1ccc2c(c1)N=C(c1ccc(Cl)cc1)c1ccccc1S2 [drawing 579]	3.16 nM
CC(NC(=O)c1ccc2c(c1)N=C(c1cccc(Cl)c1)c1ccccc1S2)c1ccccc1 (centres unmarked) [drawing 582]	50.1 nM

Further lines, results first:

IC50	SMILES
31.6 nM	O=C(NCCc1ccccn1)c1ccc2c(c1)N=C(c1ccc(Cl)c(Cl)c1)c1ccccc1S2 [drawing 1077]
10 nM	CCCC1=Nc2cc(C(=O)NCCCc3ccccc3)ccc2Sc2ccccc21 [drawing 763]
50.1 nM	O=C(NCc1ccncc1)c1ccc2c(c1)N=C(c1cccc(F)c1)c1ccccc1S2
50.1 nM	CCONC(=O)c1ccc2c(c1)N=C(c1ccc(Cl)s1)c1ccccc1S2
158 nM	Cc1ccsc1C1=Nc2cc(C(=O)NCc3ccncc3)ccc2Sc2ccccc21
50.1 nM	O=C(NCc1ccccc1Cl)c1ccc2c(c1)N=C(c1ccccc1)c1ccccc1S2 [drawing 594]
316 nM	O=C(NCCc1cccnc1)c1ccc2c(c1)N=C(c1ccccn1)c1ccccc1S2
79.4 nM	CCCNC(=O)c1ccc2c(c1)N=C(c1ccccc1Cl)c1ccccc1S2
12.6 nM	O=C(NCCC(F)(F)F)c1ccc2c(c1)N=C(c1ccc(F)cc1)c1ccccc1S2 [drawing 827]
7.94 nM	COc1cccc(C2=Nc3cc(C(=O)NCCC(F)(F)F)ccc3Sc3ccccc32)n1 [drawing 707]
39.8 nM	O=C(NC1CCCC1)c1ccc2c(c1)N=C(c1ccc(Cl)s1)c1ccccc1S2 [drawing 1139]
31.6 nM	CCCC1=Nc2cc(C(=O)NCc3ccco3)ccc2Sc2ccccc21
63.1 nM	Cc1cccnc1C1=Nc2cc(C(=O)NCCC(C)C)ccc2Sc2ccccc21
15.8 nM	O=C(NCc1cccnc1)c1ccc2c(c1)N=C(c1cccc(Br)c1)c1ccccc1S2 [drawing 895]
31.6 nM	CCCNC(=O)c1ccc2c(c1)N=C(CCC)c1ccccc1S2
50.1 nM	CCCCC1=Nc2cc(C(=O)NC)ccc2Sc2ccccc21
10 nM	Cc1cccc(C2=Nc3cc(C(=O)NCc4ccc(C)o4)ccc3Sc3ccccc32)n1 [drawing 805]
20 nM	COc1ccc(C2=Nc3cc(C(=O)NCCC(C)C)ccc3Sc3ccccc32)cc1 [drawing 965]
3.16 nM	CCCCNC(=O)c1ccc2c(c1)N=C(c1ccc(Cl)s1)c1ccccc1S2 [drawing 575]
63.1 nM	CCONC(=O)c1ccc2c(c1)N=C(c1ccc(Cl)cc1)c1ccccc1S2
251 nM	O=C(NC1CCCCNC1=O)c1ccc2c(c1)N=C(c1ccc(F)cc1)c1ccccc1S2 (centres unmarked)
200 nM	CCONC(=O)c1ccc2c(c1)N=C(c1ccc(Cl)cc1F)c1ccccc1S2

Same assay, conditions: Appendix A; R-SAT CB1; receptor form not stated; relative to SR141716 (100%)

% Inhibition	SMILES
113%	CC(NC(=O)c1ccc2c(c1)N=C(C1CCCCC1)c1ccccc1S2)c1ccccc1 (centres unmarked) [drawing 674]
97%	CCCCNC(=O)c1ccc2c(c1)N=C(c1ccc(Cl)s1)c1ccccc1S2 [drawing 575]
51%	O=C(NN1CCCCC1)c1ccc2c(c1)N=C(c1ccc(Cl)cc1)c1ccccc1S2 [drawing 914]

SMILES	% Inhibition
O=C(NN1CCCCC1)c1ccc2c(c1)N=C(c1ccc(F)cc1)c1ccccc1S2 [drawing 845]	97%

Same assay, conditions: Appendix A; R-SAT CB1; receptor form not stated; relative to SR141716 (100%); read-out: % Inhibition

SMILES	Emax
CCN(CCNC(=O)c1ccc2c(c1)N=C(c1ccccc1)c1ccccc1S2)c1ccccc1 [drawing 777]	106%
CCCC1=Nc2cc(C(=O)NC(C)CCN(C)C(=O)OCC)ccc2Sc2ccc(C)cc21 (centres unmarked)	79%
O=C(NN1CCCCC1)c1ccc2c(c1)N=C(c1ccc(Cl)s1)c1ccccc1S2 [drawing 823]	97%
CC(C)CNC(=O)c1ccc2c(c1)N=C(c1ccc(Cl)cc1)c1ccc(F)cc1S2 [drawing 949]	110%
CCCCNC(=O)c1ccc2c(c1)N=C(c1ccc(Cl)cc1)c1ccc(Cl)cc1S2 [drawing 766]	90%
O=C(NN1CCCCCC1)c1ccc2c(c1)N=C(c1sccc1Cl)c1ccccc1S2	82%
C[C@@H]1CCC[C@H](C)N1NC(=O)c1ccc2c(c1)N=C(c1ccc(Cl)c(Cl)c1)c1ccccc1S2 [drawing 739]	114%
CCN(CCNC(=O)c1ccc2c(c1)N=C(c1ccc(F)cc1)c1ccccc1S2)c1ccccc1 [drawing 773]	99%
CCCC1=Nc2cc(C(=O)NCC3C=CC4=C(C3)OCO4)ccc2Sc2ccccc21 (centres unmarked)	91%
CCCC1=Nc2cc(C(=O)NCCN3CCN(c4cccc(Cl)c4)CC3)ccc2Sc2ccccc21	76%
CCCCNC(=O)c1ccc2c(c1)N=C(c1sccc1C)c1ccccc1S2 [drawing 881]	91%
O=C(c1ccc2c(c1)N=C(N1CCCCC1)c1ccccc1S2)N1CCCCC1	89%
O=C(NCc1ccc(F)cc1)c1ccc2c(c1)N=C(c1ccccc1F)c1ccccc1S2 [drawing 925]	102%
Cc1cnc(-c2ccc3c(c2)N=C(c2ccc(Cl)cc2)c2ccccc2S3)[nH]1 [drawing 872]	88%
CC(CNC(=O)c1ccc2c(c1)N=C(c1ccc(Cl)cc1)c1cc(F)ccc1S2)c1ccccc1 (centres unmarked) [drawing 1173]	110%
CCCC1=Nc2cc(C(=O)NCCCN3CCN(c4cc(C)ccc4C)CC3)ccc2Sc2ccccc21	126%
CC(C)CCNC(=O)c1ccc2c(c1)N=C(c1ccc(F)cc1)c1ccccc1S2 [drawing 771]	107%
Cc1ccc(N2CCN(C(=O)c3ccc4c(c3)N=C(C3CCCCC3)c3ccccc3S4)CC2)c(C)c1 [drawing 896]	103%
CCCC1=Nc2cc(C(=O)N3CCN(Cc4ccc5c(c4)OCO5)CC3)ccc2Sc2ccccc21	96%
O=C(NCc1ccccc1Br)c1ccc2c(c1)N=C(N1CCCCC1)c1ccccc1S2 [drawing 890]	62%
CCCC1=Nc2cc(C(=O)NCCCN3CCN(C)CC3)ccc2Sc2ccccc21	120%
O=C(NN1CCCCCC1)c1ccc2c(c1)N=C(c1ccc(Cl)cc1Cl)c1ccccc1S2 [drawing 876]	82%
CCCCC1=Nc2cc(C(=O)NC3CCN(C(=O)OCC)CC3)ccc2Sc2ccccc21	96%
O=C(NCc1cccc(Cl)c1)c1ccc2c(c1)N=C(c1ccc(Cl)cc1)c1ccccc1S2 [drawing 579]	112%
CC(NC(=O)c1ccc2c(c1)N=C(c1cccc(Cl)c1)c1ccccc1S2)c1ccccc1 (centres unmarked) [drawing 582]	87%

Continued, values first:

Emax	SMILES
93%	O=C(NCCc1ccccn1)c1ccc2c(c1)N=C(c1ccc(Cl)c(Cl)c1)c1ccccc1S2 [drawing 1077]
104%	CCCC1=Nc2cc(C(=O)NCCCc3ccccc3)ccc2Sc2ccccc21 [drawing 763]
95%	O=C(NCc1ccncc1)c1ccc2c(c1)N=C(c1cccc(F)c1)c1ccccc1S2
21%	CCONC(=O)c1ccc2c(c1)N=C(c1ncccc1C)c1ccccc1S2
97%	CCONC(=O)c1ccc2c(c1)N=C(c1ccc(Cl)s1)c1ccccc1S2
92%	Cc1ccsc1C1=Nc2cc(C(=O)NCc3ccncc3)ccc2Sc2ccccc21
86%	O=C(NCc1ccccc1Cl)c1ccc2c(c1)N=C(c1ccccc1)c1ccccc1S2 [drawing 594]
77%	O=C(NCCc1cccnc1)c1ccc2c(c1)N=C(c1ccccn1)c1ccccc1S2
78%	CCCNC(=O)c1ccc2c(c1)N=C(c1ccccc1Cl)c1ccccc1S2
98%	O=C(NCCC(F)(F)F)c1ccc2c(c1)N=C(c1ccc(F)cc1)c1ccccc1S2 [drawing 827]
104%	COc1cccc(C2=Nc3cc(C(=O)NCCC(F)(F)F)ccc3Sc3ccccc32)n1 [drawing 707]
86%	O=C(NC1CCCC1)c1ccc2c(c1)N=C(c1ccc(Cl)s1)c1ccccc1S2 [drawing 1139]
103%	CCCC1=Nc2cc(C(=O)NCc3ccco3)ccc2Sc2ccccc21
67%	O=C(NN1CCCC1)c1ccc2c(c1)N=C(c1cccc(F)c1)c1ccccc1S2
94%	Cc1cccnc1C1=Nc2cc(C(=O)NCCC(C)C)ccc2Sc2ccccc21
105%	O=C(NCc1cccnc1)c1ccc2c(c1)N=C(c1cccc(Br)c1)c1ccccc1S2 [drawing 895]
45%	CC(C)NC(=O)c1ccc2c(c1)N=C(c1ccc(Cl)cc1Cl)c1ccccc1S2
95%	CCCNC(=O)c1ccc2c(c1)N=C(CCC)c1ccccc1S2
55%	CCCCC1=Nc2cc(C(=O)NC)ccc2Sc2ccccc21
96%	Cc1cccc(C2=Nc3cc(C(=O)NCc4ccc(C)o4)ccc3Sc3ccccc32)n1 [drawing 805]
104%	COc1ccc(C2=Nc3cc(C(=O)NCCC(C)C)ccc3Sc3ccccc32)cc1 [drawing 965]
91%	CCONC(=O)c1ccc2c(c1)N=C(c1ccc(Cl)cc1)c1ccccc1S2
83%	O=C(NC1CCCCNC1=O)c1ccc2c(c1)N=C(c1ccc(F)cc1)c1ccccc1S2 (centres unmarked)
87%	CCONC(=O)c1ccc2c(c1)N=C(c1ccc(Cl)cc1F)c1ccccc1S2

Same assay, conditions: pIC50, Appendix A; R-SAT CB1; receptor form (mutant or wild-type) not stated

SMILES	IC50
O=C(NN1CCCCC1)c1ccc2c(c1)N=C(c1ccc(Cl)s1)c1ccccc1S2 [drawing 823]	12.6 nM
CCCCNC(=O)c1ccc2c(c1)N=C(c1ccc(Cl)cc1)c1ccc(Cl)cc1S2 [drawing 766]	100 nM
O=C(NN1CCCCCC1)c1ccc2c(c1)N=C(c1sccc1Cl)c1ccccc1S2	20 nM
C[C@@H]1CCC[C@H](C)N1NC(=O)c1ccc2c(c1)N=C(c1ccc(Cl)c(Cl)c1)c1ccccc1S2 [drawing 739]	7.94 nM
CCCCNC(=O)c1ccc2c(c1)N=C(c1sccc1C)c1ccccc1S2 [drawing 881]	15.8 nM
CC(C)CCNC(=O)c1ccc2c(c1)N=C(c1ccc(F)cc1)c1ccccc1S2 [drawing 771]	10 nM

Same assay, conditions: read-out: % Inhibition, Appendix A; R-SAT CB1; receptor form not stated; relative to SR141716 (100%)

SMILES	Emax
CCCCNC(=O)c1ccc2c(c1)N=C(c1ccc(Cl)c(Cl)c1)c1ccccc1S2 [drawing 665]	109%
